Measured values as given in patent US20140057895A1, “INDAZOLE- AND PYRROLOPYRIDINE-DERIVATIVE AND PHARMACEUTICAL USE THEREOF” (priority 2011, published 2014).

Experiments:
[1] = molecular target: T1, Human 5-HT4 receptor (5-HT4b) (Homo sapiens, UniProt Q13639); experiment: Test Example 3: Human 5-HT4 receptor binding assay, membranes of CHO-K1 cells stably expressing 5-HT4b receptors (Table 99); settings: mean value of each group
T1 construct: expressed in transfected cells; membrane preparation
T1 sequence (Q13639 whole entry): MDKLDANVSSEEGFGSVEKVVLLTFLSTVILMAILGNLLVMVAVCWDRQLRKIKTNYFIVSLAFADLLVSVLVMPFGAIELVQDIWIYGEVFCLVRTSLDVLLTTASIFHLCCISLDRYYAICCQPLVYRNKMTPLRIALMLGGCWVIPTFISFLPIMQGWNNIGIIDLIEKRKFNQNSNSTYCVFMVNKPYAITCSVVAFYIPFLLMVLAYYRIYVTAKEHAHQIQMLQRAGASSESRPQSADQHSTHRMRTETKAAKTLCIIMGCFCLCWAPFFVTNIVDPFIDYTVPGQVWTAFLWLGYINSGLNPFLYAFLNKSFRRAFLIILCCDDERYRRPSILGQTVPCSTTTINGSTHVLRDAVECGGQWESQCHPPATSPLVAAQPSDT
Protocol: To an assay tube were added 0.1 nM [^3H]-GR113808 {chemical name: [1-[2-(methylsulfonylamino) ethyl]-4-piperidinyl]methyl 1-methylindole-3-carboxylate}, receptor membrane preparations, and Hepes buffer (50 mM, pH 7.4, 4° C., 1 ml) containing test compounds or 30 μM serotonin; and the mixture was incubated at 37° C. for 30 minutes. On quenching the reaction, the mixture was rapidly filtered on whatman GF/B filter, which was presoaked in 0.1% polyethyleneimine for 1 hour, by using Brandel cell Harvester, and washed with ice-cooled 50 mM Tris-HCl (pH 7.7, 4 ml) three times. To the filter after filtration was added a liquid scintillator (Ecoscint), and then a radioactivity was determined by a liquid scintillation counter.
50% Inhibition concentrations (IC50) were determined from inhibition rates of test compounds to specific bindings which were obtained by subtracting nonspecific bindings from total binding amounts of [^3H]-GR113808.
Human 5-HT4 receptor membrane preparations were prepared from CHO-K^1 cells which stably express 5-HT4b receptors, and human 5-HT4 receptor binding assay was carried out in a similar manner as in the guinea pig 5-HT4 receptor binding assay. The following tables show results of serotonin 4 (5-HT4) receptor binding assay. In the following tables, the compounds used in the test are shown in numbers which correspond to the Example numbers above where the preparations of the compounds are described.

human 5-HT4b receptor = molecular target: T2, human 5-HT4b receptor (Homo sapiens, UniProt Q13639); experiment: Test Example 4: Serotonin 4 (5-HT4) receptor agonist activity assay, cAMP HTRF in CHO cells (Table 100); type: cell-based; settings: mean value; for Emax: CHO, 0.25 h, intrinsic activity, maximal activity of 5-HT defined as 100%, read-out: IA (%); for EC50: concentration showing 50% of IA
T2 construct: expressed in transfected cells; host or cells: CHO cells (G418 selection)
T2 sequence (Q13639 whole entry): as above
In short: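 CHO cells expressing human 5-HT4b receptor, serum-reduced for 1–2 h, were suspended in Hanks/HEPES pH 7.4 and exposed to compound for 15 min at 31° C. cAMP detected by HTRF (cryptate/d2, 1 h RT, 620/665 nm). EC50 and intrinsic activity relative to maximal 5-HT response (10^−11 to 10^−7 M) set at 100%.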

CC(C)c1nn(-c2noc([C@H]3C[C@@H](NCC4CCCO4)C3)n2)c2c(F)cccc12 (relative stereo) [Example 596, cis-3-{3-[7-fluoro-3-(propan-2-yl)-1H-indazol-1-yl]-1,2,4-oxadiazol-5-yl}-N-(tetrahydrofuran-2-ylmethyl)cyclobutanamine]
IC50 [1]: < 20 nM | Emax (human 5-HT4b receptor): 82% | EC50 (human 5-HT4b receptor): 4.1 nM

CC(C)c1nn(-c2noc([C@H]3CC[C@@H](NC4CCN(S(C)(=O)=O)C4)CC3)n2)c2c(F)cccc12 (relative stereo) [Example 616, N-(cis-4-{3-[7-fluoro-3-(propan-2-yl)-1H-indazol-1-yl]-1,2,4-oxadiazol-5-yl}cyclohexyl)-1-(methylsulfonyl)pyrrolidin-3-amine]
IC50 [1]: < 20 nM | Emax (human 5-HT4b receptor): 105% | EC50 (human 5-HT4b receptor): 13 nM

CC(=O)N1CCC(N2C3CCC2CC(c2nc(-n4nc(C(C)C)c5cccc(F)c54)no2)C3)CC1 (stereo not drawn) [Example 419, 1-{4-[3-{3-[7-fluoro-3-(propan-2-yl)-1H-indazol-1-yl]-1,2,4-oxadiazol-5-yl}-8-azabicyclo[3.2.1]oct-8-yl]piperidin-1-yl}ethanone]
IC50 [1]: 63.8 nM | Emax (human 5-HT4b receptor): 110% | EC50 (human 5-HT4b receptor): 10.4 nM

CC(=O)N1CCC(C)(N2CCC(c3nc(-n4nc(C(C)C)c5cccc(F)c54)no3)CC2)CC1 [Example 487, 1-(4-{3-[7-fluoro-3-(propan-2-yl)-1H-indazol-1-yl]-1,2,4-oxadiazol-5-yl}-4′-methyl-1,4′-bipiperidin-1′-yl)ethanone]
IC50 [1]: < 20 nM | Emax (human 5-HT4b receptor): 70% | EC50 (human 5-HT4b receptor): 3.2 nM

CC(C)c1nn(-c2noc(C3CCN(C4(C)CCN(S(C)(=O)=O)CC4)CC3)n2)c2c(F)cccc12 [Example 488, 4-{3-[7-fluoro-3-(propan-2-yl)-1H-indazol-1-yl]-1,2,4-oxadiazol-5-yl}-4′-methyl-1′-(methylsulfonyl)-1,4′-bipiperidine]
IC50 [1]: < 20 nM | Emax (human 5-HT4b receptor): 106% | EC50 (human 5-HT4b receptor): 2.9 nM

CC(C)c1nn(-c2noc(C3CCN(C4(C)CCN(C(=O)N(C)C)CC4)CC3)n2)c2c(F)cccc12 [Example 489, 4-{3-[7-fluoro-3-(propan-2-yl)-1H-indazol-1-yl]-1,2,4-oxadiazol-5-yl}-N,N,4′-trimethyl-1,4′-bipiperidine-1′-carboxamide]
IC50 [1]: < 20 nM | Emax (human 5-HT4b receptor): 104% | EC50 (human 5-HT4b receptor): 2.5 nM

COCC(=O)N1CCC(C)(N2CCC(c3nc(-n4nc(C(C)C)c5cccc(F)c54)no3)CC2)CC1 [Example 490, 1-(4-{3-[7-fluoro-3-(propan-2-yl)-1H-indazol-1-yl]-1,2,4-oxadiazol-5-yl}-4′-methyl-1,4′-bipiperidin-1′-yl)-2-methoxyethanone]
IC50 [1]: < 20 nM | Emax (human 5-HT4b receptor): 111% | EC50 (human 5-HT4b receptor): 1.6 nM

CCc1nn(-c2noc(C3CCN(C4(C)CCN(C(C)=O)CC4)CC3)n2)c2c(F)cccc12 [Example 491, 1-{4-[3-(3-ethyl-7-fluoro-1H-indazol-1-yl)-1,2,4-oxadiazol-5-yl]-4′-methyl-1,4′-bipiperidin-1′-yl}ethanone]
IC50 [1]: < 20 nM | Emax (human 5-HT4b receptor): 91% | EC50 (human 5-HT4b receptor): 4.4 nM

CCc1nn(-c2noc(C3CCN(C4(C)CCN(S(C)(=O)=O)CC4)CC3)n2)c2c(F)cccc12 [Example 492, 4-[3-(3-ethyl-7-fluoro-1H-indazol-1-yl)-1,2,4-oxadiazol-5-yl]-4′-methyl-1′-(methylsulfonyl)-1,4′-bipiperidine]
IC50 [1]: < 20 nM | Emax (human 5-HT4b receptor): 78% | EC50 (human 5-HT4b receptor): 2.9 nM

CCc1nn(-c2noc(C3CCN(C4(C)CCN(C(=O)N(C)C)CC4)CC3)n2)c2c(F)cccc12 [Example 493, 4-[3-(3-ethyl-7-fluoro-1H-indazol-1-yl)-1,2,4-oxadiazol-5-yl]-N,N,4′-trimethyl-1,4′-bipiperidine-1′-carboxamide]
IC50 [1]: < 20 nM | Emax (human 5-HT4b receptor): 75% | EC50 (human 5-HT4b receptor): 1.5 nM

CCc1nn(-c2noc(C3CCN(C4(C)CCN(C(=O)COC)CC4)CC3)n2)c2c(F)cccc12 [Example 494, 1-{4-[3-(3-ethyl-7-fluoro-1H-indazol-1-yl)-1,2,4-oxadiazol-5-yl]-4′-methyl-1,4′-bipiperidin-1′-yl}-2-methoxyethanone]
IC50 [1]: < 20 nM | Emax (human 5-HT4b receptor): 72% | EC50 (human 5-HT4b receptor): 2.1 nM

CC(C)c1nn(-c2noc(C[C@H]3CCN(C4CCN(S(C)(=O)=O)CC4)C3)n2)c2c(F)cccc12 [Example 496, 7-fluoro-1-[5-({(3R)-1-[1-(methylsulfonyl)piperidin-4-yl]pyrrolidin-3-yl}methyl)-1,2,4-oxadiazol-3-yl]-3-(propan-2-yl)-1H-indazole]
IC50 [1]: < 20 nM | Emax (human 5-HT4b receptor): 70% | EC50 (human 5-HT4b receptor): 2.2 nM

CC(=O)N1CCC[C@H]1CN1CC[C@H](Cc2nc(-n3nc(C(C)C)c4cccc(F)c43)no2)C1 [Example 497, 1-[(2S)-2-{[(3R)-3-({3-[7-fluoro-3-(propan-2-yl)-1H-indazol-1-yl]-1,2,4-oxadiazol-5-yl}methyl)pyrrolidin-1-yl]methyl}pyrrolidin-1-yl]ethanone]
IC50 [1]: 76.1 nM | Emax (human 5-HT4b receptor): 88% | EC50 (human 5-HT4b receptor): 5.8 nM

CC(C)c1nn(-c2noc(C[C@H]3CCN(C[C@@H]4CCCN4S(C)(=O)=O)C3)n2)c2c(F)cccc12 [Example 498, 7-fluoro-1-(5-{[(3R)-1-{[(2S)-1-(methylsulfonyl)pyrrolidin-2-yl]methyl}pyrrolidin-3-yl]methyl}-1,2,4-oxadiazol-3-yl)-3-(propan-2-yl)-1H-indazole]
IC50 [1]: < 20 nM | Emax (human 5-HT4b receptor): 36% | EC50 (human 5-HT4b receptor): 3.4 nM

CC(=O)N1CCC[C@@H]1CN1CC[C@H](Cc2nc(-n3nc(C(C)C)c4cccc(F)c43)no2)C1 [Example 499, 1-[(2R)-2-{[(3R)-3-({3-[7-fluoro-3-(propan-2-yl)-1H-indazol-1-yl]-1,2,4-oxadiazol-5-yl}methyl)pyrrolidin-1-yl]methyl}pyrrolidin-1-yl]ethanone]
IC50 [1]: 48.6 nM | Emax (human 5-HT4b receptor): 82% | EC50 (human 5-HT4b receptor): 7.8 nM

CC(C)c1nn(-c2noc(C[C@H]3CCN(C[C@H]4CCCN4S(C)(=O)=O)C3)n2)c2c(F)cccc12 [Example 500, 7-fluoro-1-(5-{[(3R)-1-{[(2R)-1-(methylsulfonyl)pyrrolidin-2-yl]methyl}pyrrolidin-3-yl]methyl}-1,2,4-oxadiazol-3-yl)-3-(propan-2-yl)-1H-indazole]
IC50 [1]: < 20 nM | Emax (human 5-HT4b receptor): 90% | EC50 (human 5-HT4b receptor): 14.4 nM

CC(=O)N1CC(CN2CC[C@H](Cc3nc(-n4nc(C(C)C)c5cccc(F)c54)no3)C2)C1 [Example 501, 1-(3-{[(3R)-3-({3-[7-fluoro-3-(propan-2-yl)-1H-indazol-1-yl]-1,2,4-oxadiazol-5-yl}methyl)pyrrolidin-1-yl]methyl}azetidin-1-yl)ethanone]
IC50 [1]: < 20 nM | Emax (human 5-HT4b receptor): 84% | EC50 (human 5-HT4b receptor): 3.5 nM

CC(C)c1nn(-c2noc(C[C@H]3CCN(CC4CN(S(C)(=O)=O)C4)C3)n2)c2c(F)cccc12 [Example 502, 7-fluoro-1-(5-{[(3R)-1-{[1-(methylsulfonyl)azetidin-3-yl]methyl}pyrrolidin-3-yl]methyl}-1,2,4-oxadiazol-3-yl)-3-(propan-2-yl)-1H-indazole]
IC50 [1]: < 20 nM | Emax (human 5-HT4b receptor): 70% | EC50 (human 5-HT4b receptor): 3.5 nM

CC(=O)N1CC[C@@H](CN2CC[C@H](Cc3nc(-n4nc(C(C)C)c5cccc(F)c54)no3)C2)C1 [Example 503, 1-[(3S)-3-{[(3R)-3-({3-[7-fluoro-3-(propan-2-yl)-1H-indazol-1-yl]-1,2,4-oxadiazol-5-yl}methyl)pyrrolidin-1-yl]methyl}pyrrolidin-1-yl]ethanone]
IC50 [1]: < 20 nM | Emax (human 5-HT4b receptor): 98% | EC50 (human 5-HT4b receptor): 5 nM

CC(C)c1nn(-c2noc(C[C@H]3CCN(C[C@@H]4CCN(S(C)(=O)=O)C4)C3)n2)c2c(F)cccc12 [Example 504, 7-fluoro-1-(5-{[(3R)-1-{[(3S)-1-(methylsulfonyl)pyrrolidin-3-yl]methyl}pyrrolidin-3-yl]methyl}-1,2,4-oxadiazol-3-yl)-3-(propan-2-yl)-1H-indazole]
IC50 [1]: < 20 nM | Emax (human 5-HT4b receptor): 47% | EC50 (human 5-HT4b receptor): 3.9 nM

CC(=O)N1CC[C@H](CN2CC[C@H](Cc3nc(-n4nc(C(C)C)c5cccc(F)c54)no3)C2)C1 [Example 505, 1-[(3R)-3-{[(3R)-3-({3-(7-fluoro-3-(propan-2-yl)-1H-indazol-1-yl]-1,2,4-oxadiazol-5-yl}methyl)pyrrolidin-1-yl]methyl}pyrrolidin-1-yl]ethanone]
IC50 [1]: < 20 nM | Emax (human 5-HT4b receptor): 52% | EC50 (human 5-HT4b receptor): 5.5 nM

CC(C)c1nn(-c2noc(C[C@H]3CCN(C[C@H]4CCN(S(C)(=O)=O)C4)C3)n2)c2c(F)cccc12 [Example 506, 7-fluoro-1-(5-{[(3R)-1-{[(3R)-1-(methylsulfonyl)pyrrolidin-3-yl]methyl}pyrrolidin-3-yl]methyl}-1,2,4-oxadiazol-3-yl)-3-(propan-2-yl)-1H-indazole]
IC50 [1]: < 20 nM | Emax (human 5-HT4b receptor): 46% | EC50 (human 5-HT4b receptor): 2.8 nM
